Values of other authors, collected in patent US20060051384A1, “Antiseptic compositions and methods of use” (priority 2004, published 2006).

System: methicillin resistant staphylococcus aureus

## povidone-iodine
  decrease of activity on addition of nasal secretions: 80-90 wt %
